{
  "source": "paper PMC7838024",
  "about": "(Acta Pharmaceutica Sinica. B, 2020)",
  "origin": "cited, not measured here",
  "conditions": "rats, doses from 0.5 to 1.5 mg/kg",
  "data": [
    {"smiles": "CO[C@H]1C(=O)[C@]2(C)[C@@H](OC)C[C@H]3OC[C@@]3(OC(C)=O)[C@H]2[C@H](OC(=O)c2ccccc2)[C@]2(O)C[C@H](OC(=O)[C@H](O)[C@@H](NC(=O)OC(C)(C)C)c3ccccc3)C(C)=C1C2(C)C", "note": "[CTX, cabazitaxel]", "values": [
      {"measurement": "central nervous system toxicity", "result": "dose-dependent central nervous system toxicity"}
    ]}
  ]
}
